Consider nine compounds from patent US12371454B2, “Cyclic peptide compound having Kras inhibitory action” (priority 2019, dated 2025).

Each structure is given as a SMILES string. Starred links: 1 amine or outer side, 2 acyl side, 3 side chain; linkers in the order of their positions; H or OH if unused. Positions of bridges follow the written chain, without caps; N, C: chain ends. Non-standard residues stand in square brackets, D forms with d. Residues, ends and D or L forms follow the SMILES beside them. *: point of attachment. hPhe(3-Cl-4-CF3) = N[C@@H](CCc1ccc(C(F)(F)F)c(Cl)c1)C(=O)O; hPhe(3-F,4-CF3) = N[C@@H](CCc1ccc(C(F)(F)F)c(F)c1)C(=O)O; Phe(3-CF3) = N[C@@H](Cc1cccc(C(F)(F)F)c1)C(=O)O; Thiomorpholino(1,1-dioxo) = O=S1(=O)CCN(*)CC1; NEtPhe(4-Me) = CCN[C@@H](Cc1ccc(C)cc1)C(=O)O; NMePhe(4-Me) = CN[C@@H](Cc1ccc(C)cc1)C(=O)O; NMedβ3hAla = C[C@H](CC(=O)[*:2])N(C)[*:1]; NMeGly(cPent) = CN[C@H](C(=O)O)C1CCCC1; Phe(3-I) = N[C@@H](Cc1cccc(I)c1)C(=O)O; NMe4Pal = CN[C@@H](Cc1ccncc1)C(=O)O; NMeCha = CN[C@@H](CC1CCCCC1)C(=O)O; Gly(N-(CH2)2OEt) = CCOCCNCC(=O)O; Hyp = O=C(O)[C@@H]1C[C@@H](O)CN1; NMeChg = CN[C@H](C(=O)O)C1CCCCC1; NMeF = CN[C@@H](Cc1ccccc1)C(=O)O; NMeI = CC[C@H](C)[C@H](NC)C(=O)O; N(CH2CH2)2CF2 = FC1(F)CCN(*)CC1; NMeD = CN[C@@H](CC(=O)O)C(=O)O; dNMeD = CN[C@H](CC(=O)O)C(=O)O; NMeL = CN[C@@H](CC(C)C)C(=O)O; NMeV = CN[C@H](C(=O)O)C(C)C; d(β3hA) = C[C@@H](N)CC(=O)O; NMeA = CN[C@@H](C)C(=O)O; NMeAib = CNC(C)(C)C(=O)O; Piperidide = C1CCN(*)CC1; Pyrrolidide = C1CCN(*)C1; dNMeA = CN[C@H](C)C(=O)O; Ac5c = NC1(C(=O)O)CCCC1; Aze = O=C(O)[C@@H]1CCN1; Sar = CNCC(=O)O

T1 sequence (P01116 1-188 isoform P01116-2 G12D): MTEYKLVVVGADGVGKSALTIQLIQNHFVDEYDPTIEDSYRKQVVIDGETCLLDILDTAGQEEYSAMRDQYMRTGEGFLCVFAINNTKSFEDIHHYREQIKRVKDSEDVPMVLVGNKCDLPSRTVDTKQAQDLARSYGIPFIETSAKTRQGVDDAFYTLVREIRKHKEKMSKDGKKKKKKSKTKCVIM

The assay has as its target T1, Kras and SOS1 (biotin-tagged human Kras loaded with GDP, His-tagged human SOS1) (Homo sapiens, UniProt P01116, G12D).
T1 construct: made in house; host or cells: E. coli (stated for Kras only)
As to the kind of experiment: Protein-protein interaction inhibition between Kras and SOS1 (KrasGl2D-SOS PPI) using AlphaScreen. The class given is binding. The note with it: AlphaScreen; biotin-tagged human Kras loaded with GDP, His-tagged human SOS1; read-out: KRAS G12D-SOS PPI IC50. A digest of the protocol:
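AlphaScreen format: Ni donor beads capture His-SOS1, streptavidin acceptor beads capture biotinylated Kras (E. coli-expressed, GDP-loaded post-purification). Excite 680 nm, read 520-620 nm.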
For orientation: In Alpha technology, singlet oxygen from a donor bead excites a nearby acceptor bead.
`CC[C@H](C)[C@@H]1NC(=O)[C@H](CC(C)C)N(C)C(=O)C[C@H](C(=O)N2CCCC2)N(C)C(=O)[C@H](C2CCCCC2)N(C)C(=O)C2(CCCC2)NC(=O)[C@@H]2CCCN2C(=O)[C@H](CCc2ccc(C(F)(F)F)c(Cl)c2)NC(=O)CN(C)C(=O)[C@H](CC2CCCCC2)N(C)C(=O)CN(C)C(=O)CN(C)C1=O` [Compound 1781] ([NMeL]I[Sar][Sar][NMeCha][Sar][hPhe(3-Cl-4-CF3)]P[Ac5c][NMeChg][dNMeD]-Pyrrolidide; lactam N-11): the IC50 stood at 0.049 µM.
Next, `CCO[C@@H]1C[C@H]2C(=O)NC3(CCCC3)C(=O)N(C)[C@@H](C3CCCC3)C(=O)N(C)[C@H](C)CC(=O)N(C)[C@@H](CC(C)C)C(=O)N[C@@H]([C@@H](C)CC)C(=O)N[C@@H](C)C(=O)N3CC[C@H]3C(=O)N(CC)[C@@H](Cc3ccc(C)cc3)C(=O)N(C)CC(=O)N[C@@H](CCc3ccc(C(F)(F)F)c(Cl)c3)C(=O)N2C1` [Compound 525] (cyclo(A[Aze][NEtPhe(4-Me)][Sar][hPhe(3-Cl-4-CF3)][Hyp](Et)[Ac5c][NMeGly(cPent)][NMedβ3hAla][NMeL]I)): 0.0023 µM.
`CC[C@H](C)[C@@H]1NC(=O)[C@H](CC(C)C)N(C)C(=O)C[C@@H](C(=O)N(C)C)N(C)C(=O)[C@H]([C@@H](C)CC)N(C)C(=O)[C@H](C)NC(=O)[C@H](Cc2ccncc2)N(C)C(=O)[C@H](CCc2ccc(C(F)(F)F)c(Cl)c2)NC(=O)CN(C)C(=O)[C@H](Cc2ccc(C)cc2)N(C)C(=O)[C@@H]2CCN2C(=O)[C@H](C)N(C)C1=O` [Compound 1973] ([NMeL]I[NMeA][Aze][NMePhe(4-Me)][Sar][hPhe(3-Cl-4-CF3)][NMe4Pal]A[NMeI][NMeD]-NMe2; lactam N-11): the IC50 amounted to 0.0071 µM.
The figure for `CC[C@H](C)[C@@H]1NC(=O)[C@H](CC(C)C)N(C)C(=O)C[C@@H](C)N(C)C(=O)[C@H](CC(C)C)NC(=O)C(C)(C)N(C)C(=O)[C@H](CC(C)C)NC(=O)[C@H](CCc2ccc(C(F)(F)F)c(F)c2)NC(=O)CN(C)C(=O)[C@H](CC2CCCCC2)N(C)C(=O)[C@@H]2CCN2C(=O)[C@H](C)N(C)C1=O` [Compound 686] (cyclo([Aze][NMeCha][Sar][hPhe(3-F,4-CF3)]L[NMeAib]L[NMedβ3hAla][NMeL]I[NMeA])) is 0.17 µM; for `CC[C@H](C)[C@@H]1NC(=O)[C@H](CC(C)C)N(C)C(=O)C[C@@H](C(=O)N2CCCCC2)N(C)C(=O)[C@H](CC(C)C)NC(=O)C(C)(C)N(C)C(=O)[C@H](Cc2cccc(C(F)(F)F)c2)NC(=O)[C@H](Cc2cccc(I)c2)NC(=O)CN(C)C(=O)[C@H](Cc2ccc(C)cc2)N(C)C(=O)CN(C)C(=O)CN(C)C1=O` [Compound 376] ([NMeL]I[Sar][Sar][NMePhe(4-Me)][Sar][Phe(3-I)][Phe(3-CF3)][NMeAib]L[NMeD]-Piperidide; lactam N-11) it is 0.044 µM; for `CC[C@H](C)[C@@H]1NC(=O)[C@H](C)N(C)C(=O)C[C@@H](C)NC(=O)[C@H](C(C)C)N(C)C(=O)C2(CCCC2)NC(=O)[C@@H]2CCCN2C(=O)[C@H](CCc2ccc(C(F)(F)F)c(Cl)c2)NC(=O)[C@@H](C)N(C)C(=O)[C@H](Cc2ccccc2)N(C)C(=O)CN(C)C(=O)CN(C)C1=O` [Compound 1691] (cyclo([Ac5c][NMeV][d(β3hA)][NMeA]I[Sar][Sar][NMeF][dNMeA][hPhe(3-Cl-4-CF3)]P)) it is 0.12 µM.
The figure for `CC[C@H](C)[C@@H]1NC(=O)[C@H](CC(C)C)N(C)C(=O)C[C@@H](C(=O)N2CCS(=O)(=O)CC2)N(C)C(=O)[C@H](C2CCCC2)N(C)C(=O)C2(CCCC2)NC(=O)[C@H](CC(=O)N2CCC(F)(F)CC2)N(C)C(=O)[C@H](CCc2ccc(C(F)(F)F)c(Cl)c2)NC(=O)CN(C)C(=O)[C@H](CC2CCCCC2)N(C)C(=O)[C@@H]2CCN2C(=O)[C@H](C)N(C)C1=O` [Compound 780] ([NMeL]I[NMeA][Aze][NMeCha][Sar][hPhe(3-Cl-4-CF3)][NMeD](N(CH2CH2)2CF2)[Ac5c][NMeGly(cPent)][NMeD]-{Thiomorpholino(1,1-dioxo)}; lactam N-11) is 0.021 µM.
Next, `CC[C@H](C)[C@@H]1NC(=O)[C@H](CC(C)C)N(C)C(=O)C[C@@H](C(=O)N2CCCCC2)N(C)C(=O)[C@H](C2CCCCC2)N(C)C(=O)C2(CCCC2)NC(=O)[C@H](CC(=O)O)N(C)C(=O)[C@H](CCc2ccc(C(F)(F)F)c(Cl)c2)NC(=O)CN(C)C(=O)[C@H](CC2CCCCC2)N(C)C(=O)CN(C)C(=O)CN(C)C1=O` [Compound 688] ([NMeL]I[Sar][Sar][NMeCha][Sar][hPhe(3-Cl-4-CF3)][NMeD][Ac5c][NMeChg][NMeD]-Piperidide; lactam N-11): 0.0023 µM; `CCOCCN1CC(=O)N(C)CC(=O)N(C)[C@@H](CC2CCCCC2)C(=O)N(C)CC(=O)N[C@@H](CCc2ccc(C(F)(F)F)c(Cl)c2)C(=O)N2CCC[C@H]2C(=O)NC2(CCCC2)C(=O)N(C)[C@@H](C(C)C)C(=O)N[C@H](C)CC(=O)N(C)[C@@H](CC(C)C)C(=O)N[C@@H]([C@@H](C)CC)C1=O` [Compound 329] (cyclo([Ac5c][NMeV][d(β3hA)][NMeL]I[Gly(N-(CH2)2OEt)][Sar][NMeCha][Sar][hPhe(3-Cl-4-CF3)]P)): 0.04 µM.

The IC50 is the concentration that gives 50% inhibition.
